Inconclusive results are not listed.
Test system: BDF1 mice, colon carcinoma 38 sc, T/C %
Assay: NCI In Vivo Anticancer Drug Screen. Data for tumor model Colon Carcinoma 38 (subcutaneous) in B6D2F1 (BDF1) mice
Conditions: endpoint: median tumor weight (est.), higher = larger tumour
In short: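 Mice with transplanted tumors are treated with compound or vehicle. Survival or tumor size is then measured in both groups. The ratio of treated to control gives the reported figure.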

Compound: O=C(O)Cc1cccc2c(=O)cc(-c3ccccc3)oc12
- T/C (dose: 47.3 mg/kg/injection, schedule: Q03HX004 (ip), vehicle: clinical formulation): 124 % of control
- T/C (dose: 50.0 mg/kg/injection, schedule: Q07DX002 (ip), vehicle: Klucel (hydroxypropylcellulose) (HPC)): 79 % of control
- T/C (dose: 50.0 mg/kg/injection, schedule: Q07DX002 (ip), vehicle: sodium bicarbonate): 46 % of control
- T/C (dose: 63.0 mg/kg/injection, schedule: Q03HX004 (ip), vehicle: clinical formulation): 89 % of control
- T/C (dose: 63.0 mg/kg/injection, schedule: Q07DX002 (ip), vehicle: sodium bicarbonate): 70 % of control
- T/C (dose: 63.0 mg/kg/injection, schedule: Q07DX002 (iv), vehicle: sodium bicarbonate): 120 % of control
- T/C (dose: 84.0 mg/kg/injection, schedule: Q03HX004 (ip), vehicle: clinical formulation): 19 % of control
- T/C (dose: 84.0 mg/kg/injection, schedule: Q06HX002 (ip), vehicle: clinical formulation): 80 % of control
- T/C (dose: 84.0 mg/kg/injection, schedule: Q07DX002 (ip), vehicle: saline): 103 % of control
- T/C (dose: 84.0 mg/kg/injection, schedule: Q07DX002 (ip), vehicle: sodium bicarbonate): 46 % of control
- T/C (dose: 84.0 mg/kg/injection, schedule: Q07DX002 (iv), vehicle: sodium bicarbonate): 122 % of control
- T/C (dose: 100.0 mg/kg/injection, schedule: Q07DX002 (ip), vehicle: Klucel (hydroxypropylcellulose) (HPC)): 4 % of control
- T/C (dose: 100.0 mg/kg/injection, schedule: Q07DX002 (ip), vehicle: sodium bicarbonate): 73 % of control
- T/C (dose: 112.0 mg/kg/injection, schedule: Q01DX001 (ip), vehicle: clinical formulation): 72 % of control
- T/C (dose: 112.0 mg/kg/injection, schedule: Q06HX002 (ip), vehicle: clinical formulation): 29 % of control
- T/C (dose: 112.0 mg/kg/injection, schedule: Q07DX002 (ip), vehicle: clinical formulation): 44 % of control
- T/C (dose: 112.0 mg/kg/injection, schedule: Q07DX002 (ip), vehicle: saline): 13 % of control
- T/C (dose: 112.0 mg/kg/injection, schedule: Q07DX002 (ip), vehicle: sodium bicarbonate): 90 % of control
- T/C (dose: 112.0 mg/kg/injection, schedule: Q07DX002 (iv), vehicle: sodium bicarbonate): 100 % of control
- T/C (dose: 150.0 mg/kg/injection, schedule: Q01DX001 (ip), vehicle: clinical formulation): 22 % of control
- T/C (dose: 150.0 mg/kg/injection, schedule: Q07DX002 (ip), vehicle: saline): 2 % of control
- T/C (dose: 150.0 mg/kg/injection, schedule: Q07DX002 (ip), vehicle: sodium bicarbonate): 67 % of control
- T/C (dose: 150.0 mg/kg/injection, schedule: Q07DX002 (iv), vehicle: sodium bicarbonate): 15 % of control
- T/C (dose: 200.0 mg/kg/injection, schedule: Q07DX002 (ip), vehicle: sodium bicarbonate): 42 % of control
- T/C (dose: 267.0 mg/kg/injection, schedule: Q07DX002 (ip), vehicle: saline): 1 % of control

Compound: COC1CC(C)C(OC)c2cc(O)cc(c2O)NC(=O)/C(C)=C/C=C\C(C)C(OC(N)=O)/C(C)=C\C(C)C1OC (centres undefined)
- T/C (dose: 3.13 mg/kg/injection, schedule: Q07DX002 (ip), vehicle: saline + alcohol): 114 % of control
- T/C (dose: 12.5 mg/kg/injection, schedule: Q07DX002 (ip), vehicle: saline + alcohol): 69 % of control
- T/C (dose: 25.0 mg/kg/injection, schedule: Q07DX002 (ip), vehicle: saline + alcohol): 94 % of control

Compound: COC(=O)C(N)Cc1ccc(O)c(O)c1 (centres undefined)
- T/C (dose: 50.0 mg/kg/injection, schedule: Q07DX002 (ip), vehicle: saline): 85 % of control
- T/C (dose: 100.0 mg/kg/injection, schedule: Q07DX002 (ip), vehicle: saline): 113 % of control
- T/C (dose: 200.0 mg/kg/injection, schedule: Q07DX002 (ip), vehicle: saline): 88 % of control
- T/C (dose: 400.0 mg/kg/injection, schedule: Q07DX002 (ip), vehicle: saline): 99 % of control
- T/C (dose: 800.0 mg/kg/injection, schedule: Q07DX002 (ip), vehicle: saline): 110 % of control
- T/C (dose: 1600.0 mg/kg/injection, schedule: Q07DX002 (ip), vehicle: saline): 51 % of control

Compound: Brc1ccc(C[N+]23CN4CN(CN(C4)C2)C3)cc1
- T/C (dose: 12.5 mg/kg/injection, schedule: Q07DX003 (ip), vehicle: saline with Tween-80): 121 % of control
- T/C (dose: 25.0 mg/kg/injection, schedule: Q07DX003 (ip), vehicle: saline with Tween-80): 79 % of control
- T/C (dose: 50.0 mg/kg/injection, schedule: Q07DX003 (ip), vehicle: saline with Tween-80): 108 % of control
- T/C (dose: 100.0 mg/kg/injection, schedule: Q07DX003 (ip), vehicle: saline with Tween-80): 95 % of control
- T/C (dose: 200.0 mg/kg/injection, schedule: Q07DX003 (ip), vehicle: saline with Tween-80): 62 % of control
